Source: doi:10.1101/2024.05.17.594634, “Protein Structure Inspired Drug Discovery” (bioRxiv, 2024)

Tests used:
[1] = tested on: MDA-MB-231 breast cancer cells; assay: Eight-day colony formation assay, MDA-MB-231; format: cell-based, human; conditions: for efficacy ratio (cancer cell colonies to bone marrow colonies at 8 days): MDAMB231
Procedure: (§1) We sought to identify compounds that would inhibit the growth of cancer cells, but that also did so selectively. Inhibition of cancer cell growth is a highly sought after attribute of anticancer agents. This was assessed by measuring the ability of a compound to inhibit cell growth in eight-day colony formation assays, examining concentrations ranging from 0.017 to 40 μM. Breast, colon, lung and prostate cancer are four of the most common causes of cancer in the United States, are major causes of cancer cell death, and were examined.[64] Two cell lines for each cancer type were assessed: A549 (adenocarcinoma) and H226 (squamous carcinoma) for lung, MCF-7 (estrogen receptor [ER] positive) and MDA-MB-231 (ER negative) for breast, LNCaP (androgen receptor [AR] positive) and PC3-M (AR negative) for prostate, and HCT116 (wild type p53, mutated KRAS) and HT29 (p53 mutant) for colon.[65]
(§2) In considering effect on cancer cells, for each compound and each cell line tested we calculated the efficacy ratio, i.e., efficacy ratio = (percent of remaining cancer cell colonies)/(percent of remaining bone marrow colonies), at 8 days after treatment with 40 μM compound (S4 Fig). We considered those with an efficacy ratio below 0.5 as active and at least partially selective. The stringency of this is highlighted by considering the effect of 5FU on colon cancer, where it is frequently used clinically in proven curative settings, as well as proven life prolonging settings.[70, 71] […] Even at 5.7 μM, where 5FU is toxic to bone marrow, with hematopoietic colony formation at 38% of control, the efficacy ratio for HT29 cells has only dropped to 0.52. […] It can be seen that compounds segregate to protein sites. Specifically, of 10 compounds meeting this activity criteria (i.e., efficacy ratio <0.5), 3 were directed at the Dxr2 site, 3 at FolC2, 2 at FolC1, 1 at Dxr1 and 1 at TYLT.
(§3) Eight-day colony formation assays of cancer cells were performed as described by us.[87] Briefly, 0.5–1.0 × 10^3 cells were seeded into a 12 well plate, after 24 hours compound added and eight days later colonies (of 3 or more cells) were scored after trypan blue staining. Conditions were in replicates of N = 2. All compounds were stored under desiccated conditions in a sealed container at minus 20°C upon arrival. One day prior to use, they were placed into DMSO, stored at […] as stock solutions, thawed just prior to use, and not reused.

HT29 colon cancer cells = assay: Eight-day colony formation assay, HT29; format: cell-based, human
Procedure: as §1, §2, §3

[2] = tested on: human melanoma SK-MEL-5 cells; assay: Eight-day colony formation assay, SK-MEL-5; format: cell-based
Procedure: We next evaluated the effect of Dxr2-017 on human melanoma M14 and SK-MEL-5 cell lines in eight-day assays (Fig 8A).
Fig 8. Dxr2-017 inhibits melanoma cell growth through induction of anoikis. (A) Inhibition of melanoma cell growth. Cells were treated with different concentrations of Dxr2-017 and formation of colonies at eight days depicted. Data are expressed as percent of untreated control and are the mean ± SEM (N=3 replicates) of a single experiment. (B) No effect on cycle progression. M14 and SK-MEL-5 cells were treated for 8 days with 20 and 50 nM Dxr2-017, respectively, and phase of cell cycle determined by flow cytometry. Data are the mean ± SEM (N=3). *denotes P-value ≤0.05. (C) Transition to floating cells. Cells were treated for three days with different Dxr2-017 concentrations. Depicted are representative light photomicrographs at 20X; scale bar is150 μm. Blue and green arrows denote adherent and floating cells, respectively. (D) Cleaved caspase 3 is induced in floating cells. […]
Eight-day colony formation assays of cancer cells were performed as described by us.[87] Briefly, 0.5–1.0 × 10^3 cells were seeded into a 12 well plate, after 24 hours compound added and eight days later colonies (of 3 or more cells) were scored after trypan blue staining. […]

[3] = tested on: human breast, prostate, colon and lung cancer cells; assay: Eight-day colony formation assays, summary across the cancer cell line panel; format: cell-based
Procedure: as §1, §2, §3

[4] = tested on: MCF-7 breast cancer cells; assay: Eight-day colony formation assay, MCF-7; format: cell-based, human
Procedure: as §1, §2, §3

H226 lung cancer cells = assay: Eight-day colony formation assay, H226; format: cell-based, human
Procedure: as §1, §2, §3

[5] = tested on: LNCaP prostate cancer cells; assay: Eight-day colony formation assay, LNCaP; format: cell-based, human
Procedure: as §1, §2, §3

[6] = tested on: HT29, MDA-MB-231 and H226; assay: NCI-60 cell line screen, other cell lines; format: cell-based, human; conditions: 10 μM X 48 hours
Procedure: Above findings support the importance of Dxr2 and FolC2 sites, and of Dxr2-017 and FolC2-001 compounds, respectively. The predicted poses of Dxr2-017 bound to the Dxr2 site and FolC2-001 bound to the FolC2 site are shown (Fig 7). The NCI-60 cell line screen evaluates compound growth inhibition and cell toxicity in a highly standardized manner across 60 different cell lines. Dxr2-017 and FolC2-001 were evaluated in this assay (S5 Fig). NCI-60 screens evaluate compounds at 10 μM X 48 hours. […] Of high interest, in the NCI-60 screen Dxr2-017 had relatively high activity against melanoma cell lines, inducing cell death in 5 cell lines ranging from 25–65%, and inhibiting growth in 4 cell lines ranging from 76–96%. Its impact on cell death represents the most striking relative difference in response across cell lines.

M14 cells = assay: Cell cycle analysis by flow cytometry, M14; format: cell-based, human; conditions: 20 nM, eight days
Procedure: (§4) Fig 8. Dxr2-017 inhibits melanoma cell growth through induction of anoikis. (A) Inhibition of melanoma cell growth. Cells were treated with different concentrations of Dxr2-017 and formation of colonies at eight days depicted. Data are expressed as percent of untreated control and are the mean ± SEM (N=3 replicates) of a single experiment. (B) No effect on cycle progression. M14 and SK-MEL-5 cells were treated for 8 days with 20 and 50 nM Dxr2-017, respectively, and phase of cell cycle determined by flow cytometry. Data are the mean ± SEM (N=3). *denotes P-value ≤0.05. (C) Transition to floating cells. Cells were treated for three days with different Dxr2-017 concentrations. Depicted are representative light photomicrographs at 20X; scale bar is150 μm. Blue and green arrows denote adherent and floating cells, respectively. (D) Cleaved caspase 3 is induced in floating cells. Cells were treated for 3 days, cell lysate from only adherent cells, or from adherent and floating cells combined, was probed by Western blot for cleaved caspase 3. All experiments were repeated at separate times, yielding similar results.
(§5) A total of 1 × 10^4 M14 cells and 1 × 10^4 SK-MEL-5 cells were seeded into 10 cm culture dishes. […] Cells were analyzed by flow cytometry (FACSCalibur3 analyzer, BD Biosciences), and the percentage of cells within G0/G1, S, and G2/M phases were determined via analysis using Modfit LT 4.0.5.

SK-MEL-5 cells = assay: Cell cycle analysis by flow cytometry, SK-MEL-5; format: cell-based, human; conditions: 50 nM, eight days
Procedure: as §4, §5

Which results are given for `c1ccc2sc(-c3ccc(CNc4ccc5nnnn5n4)o3)nc2c1` [Dxr2-017]?
efficacy ratio (cancer cell colonies to bone marrow colonies at 8 days) ([1]; 5.7 μM): 0.05; efficacy ratio (cancer cell colonies to bone marrow colonies at 8 days) ([1]; 40 μM): 0.00; inhibition at 0.12 µM ([1]; Homo sapiens, 0.12 μM, MDA-MB-231, mean ± SD, read-out: inhibition of colony formation compared to control): 81.7 ± 15.5%; efficacy ratio (cancer cell colonies to bone marrow colonies at 8 days) (HT29 colon cancer cells; 5.7 μM): 0.03; efficacy ratio (cancer cell colonies to bone marrow colonies at 8 days) (HT29 colon cancer cells; 40 μM): 0.00; inhibition at 0.12 µM (HT29 colon cancer cells; Homo sapiens, HT-29, 0.12 μM, mean ± SD, read-out: inhibition of colony formation compared to control): 91.1 ± 4.8%; IC50 ([2]; Homo sapiens, 192 h, SK-MEL-5, eight-day assay, mean ± SEM): 51.7 ± 16.4 nM; fold efficacy versus bone marrow stem cells ([2]; SK-MEL-5 IC50 compared to 40 μM eight-day bone marrow treatment): > 750 fold; relative activity for a given compound, % (% of cells tested where ratio is <0.5) ([3]; 5.7 μM): 75%; mean efficacy ratio for cells where the efficacy ratio is below 0.5 ([3]; 5.7 μM, mean ± SEM): 0.25 ± 0.091; relative activity for a given compound, % (% of cells tested where ratio is <0.5) ([3]; 40 μM): 100%; mean efficacy ratio for cells/compounds where the efficacy ratio is below 0.5 ([3]; 40 μM, mean ± SEM): 0.03 ± 0.01; efficacy ratio (cancer cell colonies to bone marrow colonies at 8 days) ([4]; 5.7 μM): 0.39; efficacy ratio (cancer cell colonies to bone marrow colonies at 8 days) ([4]; 40 μM): 0.02; efficacy ratio (cancer cell colonies to bone marrow colonies at 8 days) (H226 lung cancer cells; 5.7 μM): 0.12; efficacy ratio (cancer cell colonies to bone marrow colonies at 8 days) (H226 lung cancer cells; 40 μM): 0.02; efficacy ratio (cancer cell colonies to bone marrow colonies at 8 days) ([5]; 5.7 μM): 0.49; efficacy ratio (cancer cell colonies to bone marrow colonies at 8 days) ([5]; 40 μM): 0.05; activity in NCI-60 screen [6]: activity against HT29, MDA-MB-231 and H226; change in cell cycle parameters (M14 cells): little-to-no change in cell cycle parameters; change in cell cycle parameters (SK-MEL-5 cells): little-to-no change in cell cycle parameters
